From publication PMC7662397, “p-Cymene Complexes of Ruthenium(II) as Antitumor Agents” (Molecules, 2020)
Read-outs that look alike come from different tables or passages of the source.

What was measured:
HeLa cells [1] = experiment: MTT cytotoxicity assay, HeLa cells, 48 h; format: cell-based, human; details: read-out: IC50 (μM) HeLa
Excerpt: (§1) Human cervical cancer cells (HeLa), human breast cancer cells (MCF-7) and green monkey kidney epithelial cells (BGM) were acquired from the American Type Culture Collection (ATCC, USA). The reason to choose human cervical cancer cells (HeLa) and human breast cancer cells (MCF-7) was to use a cell culture model that closely represented the human in vivo situation. The green monkey kidney epithelial cells (BGM) were chosen to compare cancer cells with healthy cells. Cell lines were maintained in Dulbecco’s Modified Eagle Medium (DMEM) with a low glucose content (1 g/L) supplemented with 10% (v/v) fetal bovine serum (FBS), 1 mM glutamax, 1% antibiotics (penicillin–streptomycin) and 1 mM pyruvate. In all cases, the cells were maintained at 37 °C in 5% CO2 atmosphere of 95% humidity. Cells were sub-cultured and the medium was changed once a week. In all cases, 0.25% trypsin, 0.25 mM ethylenediaminetetraacetic acid (EDTA) was used.
(§2) A total of 5 × 10^3 cells/well (200 µL of the culture medium described above) were seeded into a 96-well plate and incubated at 37 °C in a 5% CO2 and 95% humidity atmosphere for 24 h. […] Finally, a 200 µL aliquot of each of these last sixteen solutions was added to the wells. Cells were incubated at 37 °C for 48 h. The medium was then removed from the wells and 200 μL of MTT (3-(4,5-dimethylthiazol-2-yl)-2,5-diphenyltetrazolium bromide, 1 mg/mL final concentration) was added. After 4 h incubation in identical conditions, MTT was removed and 100 µL of dimethyl sulfoxide (DMSO) added. The absorbance at 560 nm was measured and recorded in a Fluostar Omega spectrophotometer.
(§3) Absorbances at each compound concentration were translated into inhibition percentages, I%, according to Equation (1):(1) I% = [1− AT/AC]×100 where AT and AC are the absorbance of treated and control cells, respectively.
(§4) The fitting was performed using GraphPad Prism v.8 software. All compounds were tested in three independent sets with triplicate points. The in vitro studies were performed in SACE (Support Service for Experimental Sciences, University of Murcia, Murcia, Spain) with biosecurity Level 2.

BGM cells [2] = experiment: MTT cytotoxicity assay, BGM cells, 48 h; format: cell-based, green monkey; details: read-out: IC50 (μM) BGM
Excerpt: as §1, §2, §3, §4

MCF-7 cells [3] = experiment: MTT cytotoxicity assay, MCF-7 cells, 48 h; format: cell-based, human; details: read-out: IC50 (μM) MCF-7
Excerpt: as §1, §2, §3, §4

BGM cells [4] = details: cisplatin value from the literature; cited from earlier work
HeLa cells [5] = test system: HeLa cells; design: method as in PMID 29880783; details: cisplatin value from the literature; cited from earlier work
MCF-7 cells [6] = details: cisplatin value from the literature; cited from earlier work
[7] = human cervical cancer cells, 48 h exposure, MTT
[8] = healthy green monkey kidney epithelial cells, 48 h exposure, MTT
[9] = human breast cancer cells, 48 h exposure, MTT
[10] = Chlorocebus sabaeus, BGM, healthy green monkey kidney epithelial cells, 48 h exposure, MTT
[11] = MCF7, human breast cancer cells, 48 h exposure, MTT

Row | SMILES | IC50 (HeLa cells [1]; [7]) [µM] | IC50 (BGM cells [2]; [8]) [µM] | IC50 (MCF-7 cells [3]; [9]) [µM] | IC50 (BGM cells [2]; [10]) [µM] | IC50 (MCF-7 cells [3]; [11]) [µM] | further results
1 | N#Cc1ccncc1 [4-cyanopyridine] | – | – | – | – | – | IC50 (HeLa cells [1]; Homo sapiens, 48 h): > 250 µM; IC50 (BGM cells [2]; Chlorocebus sabaeus, BGM, 48 h): > 250 µM; IC50 (MCF-7 cells [3]; Homo sapiens, MCF7, 48 h): > 250 µM
2 | Cc1ccc(C(C)C)cc1.Nc1ccc(O)cc1.[Cl][Ru][Cl] [Complex III] | 171 ± 2.1 | 59.6 ± 1.9 | 75.8 ± 2.3 | – | – | –
3 | Cc1ccc(C(C)C)cc1.Nc1ccccc1O.[Cl][Ru][Cl] [Complex II] | 82.9 ± 0.67 | > 250 | 28.7 ± 1.8 | – | – | –
4 | Cc1ccc(C(C)C)cc1.[Cl][Ru][Cl].c1ccnnc1 [Complex IV] | > 250 | > 250 | > 250 | – | – | –
5 | Cc1ccc(C(C)C)cc1.N#Cc1ccncc1.[Cl][Ru][Cl] [Complex I] | > 250 | > 250 | > 250 | – | – | –
6 | Cc1ccc(C(C)C)cc1.F[P-](F)(F)(F)(F)F.Nc1ccccc1O.Nc1ccccc1O.[Cl][Ru+] [Complex VI] | 57.6 ± 4 | 95 ± 1.7 | 24.9 ± 4.3 | – | – | –
7 | Nc1ccccc1O [L = 2-aminophenol, 2-aminophenol] | > 250 | – | – | > 250 | 131.3 ± 0.15 | –
8 | Nc1ccc(O)cc1 [L = 4-aminophenol, 4-aminophenol] | > 250 | – | – | > 250 | > 250 | –
9 | c1ccnnc1 [Pyridazine] | > 250 | – | – | > 250 | > 250 | –
10 | N.N.[Cl][Pt][Cl] [cisplatin] | – | – | – | – | – | IC50 (BGM cells [4]): 5.45 ± 0.2 µM; IC50 (HeLa cells [5]): 67.6 ± 2 µM; IC50 (MCF-7 cells [6]): 7.15 ± 0.1 µM
